Source: patent US12239651B2, “Treatment of hearing loss” (Massachusetts Eye and Ear Infirmary, priority 2018, dated 2025)
Entries after “also recorded” stand apart in the source; their conditions may differ.

Tests used:
[1] = test system: adult rtTA/tet-NICD cochlea; assay: Proliferation and HC regeneration in Dox-treated adult rtTA/tet-NICD cochlea culture with ad-Atoh1; type: cell-based, mouse; settings: for EdU+ (proliferating) cells: Dox (NICD activation) plus MHY1485, ad-Atoh1, vs Dox alone/DMSO controls, SE and Lib; for HC regeneration by ad-Atoh1 (new HCs, MYO7A+/PVALB+): Dox (NICD activation) plus MHY1485 and ad-Atoh1 vs Dox and ad-Atoh1 without MHY1485
Text: (§1) Survival was studied by analysis of apoptosis.
The prominent roles in proliferation and cell growth by mTOR provided evidence that it may compensate for part of the MYC functions. To determine if mTOR activation is sufficient to replace MYC to induce proliferation in adult cochlea, mTOR was activated in Dox-treated rtTA/tet-NICD adult cochlea culture by MHY1485, a small molecule mTOR activator^8 (FIG. 1K).
(§2) To evaluate if mTOR is sufficient to induce proliferation, wildtype adult mouse cochlea were cultured and treated with MYH1485 to activate mTOR pathway followed by ad-Atoh1 infection for hair cell regeneration. […] Thus activation of mTOR by MHY1485 is sufficient to induce proliferation in adult/mature cochlea and it improves hair cell regeneration efficiency mediated by Atoh1.

[2] = test system: wildtype adult mouse cochlea; assay: Proliferation and hair cell regeneration in cultured adult wildtype cochlea with ad-Atoh1; type: cell-based; settings: wildtype adult cochlea culture, ad-Atoh1 infection 14 days, MHY1485 treated vs ad-Atoh1 only
Experimental: as §1, §2

[3] = test system: adult rtTA/tet-MYC/tet-NICD cochlea; settings: 6 days Dox with vs without rapamycin, in vitro; SE and Lib regions
Text: SOX2 labeled SCs. […] Arrows pointed to SOX2^+/EdU^+/p-rpS6^+ cells. […] Error bar, mean±SEM; n=5. […] Error bar, mean±SEM; n=5. (FIG. 1K) A diagram illustrating the study of the effect of mTOR activator MHY1485 on proliferation and HC regeneration. […] (FIGS. 1N-1O) Quantification of EdU^+ cells, MYO7A^+ HCs and ectopic HCs in 1-m″. *p<0.05, Student's t-test. Error bar, mean±SEM; n=5.
Whole cochlea explant organ culture and microinjection into adult cochlea were used for the study in vitro and in vivo, respectively. NOTCH1 and c-MYC were activated in adult wild type mice by virus-mediated delivery, or in adult doxycycline-inducible rtTA/tet-MYC/tet-NICD transgenic mice through supplement of doxycycline in vitro and in vivo. EdU and BrdU incorporation was used to study proliferation. Lineage tracing using Sox2-promoter-driven Cre mice (Sox2-CreER) crossed with the tdTomato (tdT) reporter mice was conducted to identify the origin of proliferating cells. The mechanisms underlying reprograming were studied by qRT-PCR, immunolabeling and the effectors that modulate mTOR pathway. Survival was studied by analysis of apoptosis.
It was hypothesized that the reprogramming effect in adult cochlea by MYC/NICD may be mediated in part by the mTOR pathway.

| Structure (SMILES) | EdU+ (proliferating) cells [1] | EdU+ (proliferating) cells ([1]; listed as MHY 1485) | HC regeneration by ad-Atoh1 (new HCs, MYO7A+/PVALB+) [1] | HC regeneration by ad-Atoh1 (new HCs, MYO7A+/PVALB+) ([1]; listed as MHY 1485) | HC regeneration by ad-Atoh1 (new HCs, MYO7A+/PVALB+) ([1]; listed as MYH1485) | number of EdU+ cells compared with Myc/NICD co-activation ([1]; NICD activation and MHY1485 treatment vs Myc/NICD co-activation) | EdU labeled (proliferating) cochlear cells [2] | hair cell regeneration (PVALB+/MYO7a+) [2] | EdU labeled (proliferating) cochlear cells ([2]; listed as MHY 1485) | number of EdU+ cells induced by Myc/NICD co-activation [3] |
| --- | --- | --- | --- | --- | --- | --- | --- | --- | --- | --- |
| O=[N+]([O-])c1ccc(Nc2nc(N3CCOCC3)nc(N3CCOCC3)n2)cc1 [MHY1485] | observed in the sensory epithelium and the limbus regions; also recorded: most proliferating cells; also recorded: Significantly more | most proliferating cells | most regenerated hair cells; also recorded: Significantly more | most proliferating cells and hair cells | more HC regeneration | fewer | numerous proliferating cells | More hair cells were regenerated; also recorded: enhanced hair cell regeneration | Abundant EdU labeled cochlear cells |  |
| COc1ccc(C[C@H](N)C(=O)N[C@H]2[C@@H](O)[C@H](n3cnc4c(N(C)C)ncnc43)O[C@@H]2CO)cc1 [puromycin] |  |  |  |  |  |  |  |  |  | suppresses proliferation |
